Laboratory results taken from patent US20260109727A1, “RNA CONSTRUCTS AND USES THEREOF” (BioNTech SE, priority 2022, published 2026).

Test system: BALB/c mice
Test: Plasma EPO in mice IV injected with 3 μg TransIT-complexed EPO mRNA (ELISA)
Type: in vivo
Description: To confirm in vitro data, female BALB/c mice from Jackson Laboratory (Bar Harbor, ME, USA) at the age of eight to ten weeks were used for in vivo experiment in accordance with federal policies on animal research (Ethics approval number: G18-12-027). Mice (n=3/group) were injected intravenously (i.v.) with 3 μg TransIT-complexed (Mirus Bio) EPO mRNAs in a final volume of 200 μL Dulbecco's modified Eagle medium (DMEM). Mice used as controls were injected with TransIT-reagent diluted in DMEM but without RNA. Mice were injected with EPO mRNA complexed with TransIT-reagent and EPO levels in plasma were measured using ELISA (FIG. 8A). Hematocrit was measured from 18 μl of blood that was collected at the indicated times using centrifugation in Drummond microcaps glass capillary tubes (20 μl volume, Merck, Germany) as described (20) (FIG. 8B). After determination of the hematocrit, capillary tubes were snapped open, and the plasma was collected to measure EPO levels and analyzed for mouse Erythropoietin DuoSet ELISA kit (R&D Systems) according to the manufacturer's instructions. […] EPO RNA containing m1Ψ translated two-fold more than U-containing mRNA at each time points (FIG. 8A). Both compound I′-1 and compound I′-6 are suitable for translation of the encoded protein and each cap analog can be used for synthesizing of non-replicating functional mRNAs (FIG. 8A, 8B).
In each in vivo experiment in order to measure the translational efficiency and to determine the functionality of EPO mRNA capped with I′-1, I′-2, I′-3, I′-5, I′-6, I′-9, I′-12, I′-13, I′-16, CC114, and CC413 in vivo, female BALB/c mice from Jackson Laboratory (Bar Harbor, ME, USA) at the age of eight to ten weeks were used for in accordance with federal policies on animal research (Ethics approval number: G19-12-074). In each case, mice (n=3/group) were injected intravenously (i.v.) with 3 μg TransIT-complexed (Mirus Bio) EPO mRNAs in a final volume of 200 μL Dulbecco's modified Eagle medium (DMEM). Mice used as controls were injected with TransIT-reagent diluted in DMEM but without RNA. To measure hematocrits and EPO levels in the individual mice that were injected with EPO mRNA capped with I′-6, I′-1, CC114, and CC413 and complexed with TransIT-reagent, 18 μL of blood was collected at the indicated times (FIG. 8B) and centrifuged in Drummond microcaps glass capillary tubes (20 μl volume, Merck, Germany) as described (19). After determination of the hematocrit, capillary tubes were snapped open, and the plasma was collected to measure EPO levels and analyzed for mouse Erythropoietin DuoSet ELISA kit (R&D Systems) according to the manufacturer's instructions. […] EPO RNA containing m1Ψ modifications translated 2-3-fold, 5-fold, and 10-fold more than U-containing mRNAs at 6-24, 48 and 72 hours after injections, respectively. (FIG. 8A). […] To address translation of I′-6-capped mRNA in human primary hepatocytes, EPO level was measured from supernatants transfected using 0.1 μg/well TransIT-formulated I′-6- or CC114-capped uRNA (FIG. 13).
To this end, we generated U-containing as well as m1Ψ-modified EPO RNA capped with cap analogs which belong to either the non-ARCA (I′-13) or ARCA (I′-6) classes. Moreover, the latter ones contain 2′-OMe (I′-5) or 3′-OMe (I′-6) at the ribose of the m7G moiety. Three μg of TransIT-complexed EPO mRNA capped with nucleoside modification-containing NeoCaps I′-13, I′-5 and I′-6 cap analogs were injected into mice intravenously. After that EPO level of plasma collected from mice was measured at 6, 24 and 48 hours after administration to compare the translational activity of mRNA capped with NeoCaps with U-containing or m1Ψ-modified mRNA capped with non-modified ARCA 3′OMe I′-1.
Plasma EPO level of mice injected with 3 μg of each TransIT-complexed mRNA was determined using murine EPO-specific ELISA at 6, 24, 48 and 72 hours after intravenous administration. […]

## COC1C(OP(=O)(O)OC[C@H]2O[C@@H](c3cn(C)c(=O)[nH]c3=O)C(O)C2O)[C@@H](COP(=O)(O)OP(=O)([O-])OP(=O)(O)OC[C@H]2O[C@@H](n3c[n+](C)c4c(O)nc(N)nc43)C(O)C2OC)O[C@H]1n1cnc2c(N)ncnc21 (stereo partly drawn) [I′-6, m^7G(^3′-OMe)pppA(2′-OMe)pm^1Ψ]
After IV injection
  24-hour EPO values compared with 6-hour values: higher than the 6-hour values
Later time points
  translation (plasma EPO) relative to CC413: 2- to 3 fold
m1Ψ-modified mRNA capped with I′-6 vs U-containing mRNA capped with I′-1, each time point
  translation (EPO level) relative to I′-1: 2-3 fold
m1Ψ-modified mRNA, 6-24 hours after administration
  translation relative to unmodified I′-1: 2-3 fold
m1Ψ-modified mRNA, 48-72 hours after administration
  translation relative to unmodified I′-1: 4-5 fold
m1Ψ-modified mRNA, 48 and 72 h after injection, respectively
  translation / plasma EPO level relative to CC413: 1.5-3 fold
m1Ψ-modified mRNA, same capping efficiency
  performance compared with cap analogs with other modification: surpasses the performance of other cap analogs
Regardless of the RNA modification
  translation of ARCA analogs compared to non-ARCA caps CC114 and I′-13: significantly better
Regardless of the cap initiators
  plasma EPO compared with reference samples (I′-1, CC114, CC413): outperformed each reference sample
